No end group written: not given here.
Test: physchem

Sequence	solubility
PESFDGDPASNTAPLQPRVLQGLPREYVNARHSLPYMPIWKFPDEEGAC [PEV604]	500 to 1500 µg/mL
RVLQGLPREYVNARHSPESFDGDPASNTAPLQPYMPIWKFPDEEGAC [PEV607, RVLQGLPREYVNARHS PESFDGDPASNTAPLQP YMPIWKFPDEEGAC]	500 to 1500 µg/mL
YMPIWKFPDEEGAC [PEV603, YMPIWKFPDEEGAC]	2000 to 3000 µg/mL

Test: not given
Source text: The polydispersity of a virosomal preparation is an indication for the homogeneity of the particle size in an aqueous solution, with lower polydispersity being associated with a greater degree of homogeneity of size over all virosomes present in the composition.

Sequence	Stabilty(I)IRIV
PESFDGDPASNTAPLQPGGGGGC [PEV601]	acceptable
PESFDGDPASNTAPLQPRVLQGLPREYVNARHSLPYMPIWKFPDEEGAC [PEV604]	limited
PESFDGDPASNTAPLQPRVLQGLPREYVNARHSYMPIWKFPDEEGAC [PEV605, PESFDGDPASNTAPLQP RVLQGLPREYVNARHS YMPIWKFPDEEGAC]	limited
PESFDGDPASNTAPLQPYMPIWKFPDEEGASRVLQGLPREYVNARHC [PEV606, PESFDGDPASNTAPLQP YMPIWKFPDEEGAS RVLQGLPREYVNARHC]	limited
RVLQGLPREYVNARHC [PEV602, RVLQGLPREYVNARHC]	limited
RVLQGLPREYVNARHSPESFDGDPASNTAPLQPYMPIWKFPDEEGAC [PEV607, RVLQGLPREYVNARHS PESFDGDPASNTAPLQP YMPIWKFPDEEGAC]	limited
RVLQGLPREYVNARHSYMPIWKFPDEEGASPESFDGDPASNTAPLQPC [PEV608, RVLQGLPREYVNARHS YMPIWKFPDEEGAS PESFDGDPASNTAPLQPC]	limited
YMPIWKFPDEEGAC [PEV603, YMPIWKFPDEEGAC]	limited
YMPIWKFPDEEGASPESFDGDPASNTAPLQPRVLQGLPREYVNARHC [PEV609, YMPIWKFPDEEGAS PESFDGDPASNTAPLQP RVLQGLPREYVNARHC]	limited
YMPIWKFPDEEGASRVLQGLPREYVNARHSPESFDGDPASNTAPLQPC [PEV610, YMPIWKFPDEEGAS RVLQGLPREYVNARHS PESFDGDPASNTAPLQPC]	limited

Test: physchem
Remark: another data set of the same source

Sequence	solubility
PESFDGDPASNTAPLQPGGGGGC [PEV601]	2000 to 3000 µg/mL
PESFDGDPASNTAPLQPRVLQGLPREYVNARHSLPYMPIWKFPDEEGAC [PEV604]	800 µg/mL
PESFDGDPASNTAPLQPRVLQGLPREYVNARHSYMPIWKFPDEEGAC [PEV605, PESFDGDPASNTAPLQP RVLQGLPREYVNARHS YMPIWKFPDEEGAC]	800 µg/mL
PESFDGDPASNTAPLQPYMPIWKFPDEEGASRVLQGLPREYVNARHC [PEV606, PESFDGDPASNTAPLQP YMPIWKFPDEEGAS RVLQGLPREYVNARHC]	800 µg/mL
RVLQGLPREYVNARHC [PEV602, RVLQGLPREYVNARHC]	500 µg/mL
RVLQGLPREYVNARHSPESFDGDPASNTAPLQPYMPIWKFPDEEGAC [PEV607, RVLQGLPREYVNARHS PESFDGDPASNTAPLQP YMPIWKFPDEEGAC]	800 µg/mL
RVLQGLPREYVNARHSYMPIWKFPDEEGASPESFDGDPASNTAPLQPC [PEV608, RVLQGLPREYVNARHS YMPIWKFPDEEGAS PESFDGDPASNTAPLQPC]	800 µg/mL
YMPIWKFPDEEGAC [PEV603, YMPIWKFPDEEGAC]	< 200 µg/mL
YMPIWKFPDEEGASPESFDGDPASNTAPLQPRVLQGLPREYVNARHC [PEV609, YMPIWKFPDEEGAS PESFDGDPASNTAPLQP RVLQGLPREYVNARHC]	800 µg/mL
YMPIWKFPDEEGASRVLQGLPREYVNARHSPESFDGDPASNTAPLQPC [PEV610, YMPIWKFPDEEGAS RVLQGLPREYVNARHS PESFDGDPASNTAPLQPC]	800 µg/mL
